From patent US20250090562A1, “METHODS, COMPOSITIONS AND USES RELATED TO THE TREATMENT AND PREVENTION OF LEIGH’S SYNDROME” (Stealth BioTherapeutics Inc., priority 2023, published 2025)

How the values were obtained:
15-lipoxygenase (15-LO) = experiment: 15(S)-HETE ELISA following erastin treatment, Leigh fibroblasts; format: cell-based, human; settings: erastin + FAC + AA, 1 μM compound, 24 h
Method: Samples for the 15(S)-HETE ELISA were generated by the Erastin Assay described above. Healthy or Leigh fibroblasts were resuspended in assay medium, seeded at 200,000 cells/well in a clear, tissue culture-treated, 24-well plate, and incubated at 37° C. for 24 hours. Supernatant was aspirated from each well.
Ferroptosis was induced using erastin at 2 μM concentration. 15(S)-HETE, which is a metabolite of arachidonic acid and generated by activity of 15-LO, was measured using a commercially available ELISA kit. Data were normalized to the “No treatment” group, which represented fibroblasts that were not injured with erastin.

[1] = test system: ROS production generated by reverse electron transfer (RET) from Complex II to Complex I; experiment: Reverse electron transfer assay (RET assay) in isolated brain mitochondria; format: biochemical, mouse
Method: For mitochondria isolation, brains were dissected at a local vivarium (Explora, MA, USA) from C57BL/6 mice that were supplied by The Jackson Laboratory (Maine, USA). Brains were collected on ice in cold mitochondria isolation buffer (225 mM mannitol, 75 mM sucrose, 5 mM HEPES, 1 mM EGTA, pH 7.4). In a glass petri dish, brains were mixed with a few drops of buffer and cut into small pieces resembling a mash using scissors. Mitochondrial isolation buffer was added at 1:10-1:20 (w/v) and tissue mash was transferred to a glass Dounce tissue homogenizer and further homogenized with 10-15 strokes. Mash was centrifuged at 1,000×g for 10 min to pellet and remove cellular debris, etc. Supernatant was transferred into 2.0 mL tubes and centrifuged at 10,000×g. […]
All high-resolution respirometry experiments were conducted using the Oroboros O2k-Fluorespirometer (Oroboros, Innsbruck, Austria). […] Prior to each experiment requiring the fluorescence module, the AmpR calibration protocol from DatLab 7.4 was used to calibrate the fluorescence signal. […]
Reverse electron transfer (RET) was measured using HRR with the Oroboros O2k and DatLab 7.4. […]
Statistical analysis was performed using GraphPad Prism 9. […] RET Assay data were analyzed by 2-way ANOVA using a p-value of 0.05. […]

[2] = test system: Leigh fibroblasts (GM03672); experiment: Mitochondrial membrane potential (TMRM flow cytometry) in RSL3-treated Leigh fibroblasts; format: cell-based, human; settings: 1 μM RSL3 with 1 μM compound, 4 h
Method: Leigh fibroblasts (GM03672) were seeded in a 24-well, tissue culture-treated plate in complete MEM (MEM+15% FBS+1% penicillin/streptomycin) at a density of 1×10^5 cells per 500 μL and incubated overnight at 37° C. at 5% CO2. Cells were treated for 4 hours at 37° C. with either 1 μM RSL3, 1 μM RSL3 with 1 μM Compound 3 or media for untreated cells. Following the incubation, supernatant was removed and cells were treated with 0.25% trypsin for 5 min at 37° C. Trypsin was neutralized with an equal part MEM. Cells were dislodged with gentle pipetting and pelleted at 300×g for 5 minutes. Pellets were resuspended in 500 μL Fluobrite DMEM and cells were transferred to a 96-well, v-bottom plate. Cells were stained with 20 nM MitoTracker Green and 100 nM tetramethylrhodamine methyl ester (TMRM) Samples were incubated for 25 minutes at 37° C. Each well was mixed immediately prior to analysis to resuspend settled cells. Fluorescence intensity was measured on the BD Accuri C6 Plus Flow Cytometer. A minimum of 10,000 events per sample was collected. Data analysis was performed using FloJo vs. 10. Gating was performed by establishing an initial forward scatter vs. side scatter gate. MitoTracker Green positive, TMRM positive cells were identified through subsequent gating. Median fluorescence intensity (MFI) of TMRM fluorescence was determined. Using GraphPad Prism 10, statistical significance between groups was determined by One-way ANOVA. A p-value of less than 0.05 was considered significant. Results are presented graphically in FIG. 20.

SMILES: CC1=C(C)C(=O)C(CC[C@@](C)(O)CC/C=C(\C)CCC=C(F)F)=C(C)C1=O [Compound 2]
- relative 15-LO inhibition (comparison between test articles) (15-lipoxygenase (15-LO)): slightly less effective

SMILES: CC1=C(C)C(=O)C(CC[C@@](C)(O)COCCC[Si](C)(C)C)=C(C)C1=O [Compound 3]
- H2O2 production ([1]; 2 μM compound prior to succinate (10 mM)): statistically significant reduction
- mitochondrial membrane potential (TMRM MFI), protection [2]: protective of the Leigh fibroblasts from the loss of mitochondrial membrane potential

SMILES: CC1=C(C)C(=O)C(CC[C@](C)(O)CCCCCCCCC(F)(F)F)=C(C)C1=O [Compound 4]
- H2O2 production ([1]; either 1 or 2 μM compound prior to succinate (10 mM)): statistically significant reduction
- mitochondrial membrane potential (TMRM MFI), protection [2]: protective of the Leigh fibroblasts from the loss of mitochondrial membrane potential
